Results from patent US20140288074A1, “FUNGICIDAL PYRAZOLES” (E I DU PONT DE NEMOURS AND COMPANY, priority 2013, published 2014).
Marks after values point to notes of the source that are not given here.

Assays:
[1] = tested on: Alternaria solani; assay: Test B: preventive spray on tomato seedlings, tomato early blight, visual disease rating; type: in vivo
Method: General protocol for preparing test suspensions for Tests A-G: the test compounds were first dissolved in acetone in an amount equal to 3% of the final volume and then suspended at the desired concentration (in ppm) in acetone and purified water (50/50 mix by volume) containing 250 ppm of the surfactant Trem® 014 (polyhydric alcohol esters). The resulting test suspensions were then used in Tests A-G. Each test was conducted in triplicate, and the results were averaged. Spraying a 200 ppm test suspension to the point of run-off on the test plants was the equivalent of a rate of 800 g/ha. Unless otherwise indicated, the rating values indicate a 200 ppm test suspension was used. (An asterisk “*” next to the rating value indicates a 40 ppm test suspension was used.) The test suspension was sprayed to the point of run-off on tomato seedlings. The following day the seedlings were inoculated with a spore suspension of Alternaria solani (the causal agent of tomato early blight) and incubated in a saturated atmosphere at 27° C. for 48 h, and then moved to a growth chamber at 20° C. for 5 days, after which time visual disease ratings were made. Results for Tests A-G are given in Table A. In the Table, a rating of 100 indicates 100% disease control and a rating of 0 indicates no disease control (relative to the controls). A hyphen (-) indicates no test results.

[2] = tested on: Septoria nodorum; assay: Test C: preventive spray on wheat seedlings, Septoria glume blotch, visual disease rating; type: in vivo; details: for pest or weed control at 200 ppm / Test C rating (disease control): 200 ppm test suspension, Septoria nodorum inoculated the day after spraying
In short: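 Compounds suspended in acetone/water (50/50) with 250 ppm surfactant, sprayed to run-off at 200 ppm (40 ppm where marked); seedlings inoculated next day, held 48 h saturated at 24 °C, then 9 days at 20 °C. Visual rating 0–100% disease control versus controls, triplicate averaged.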

[3] = 200 ppm test suspension, Alternaria solani inoculated the day after spraying
[4] = Parastagonospora nodorum, 264 h

Row | Compound | Test B rating (disease control) [1, 3] | pest or weed control at 200 ppm [2, 4] | Test C rating (disease control) [2] | Test B rating (disease control) ([1]; 40 ppm test suspension (asterisk), Alternaria solani) | pest or weed control at 40 ppm ([2]; Parastagonospora nodorum, 264 h, 40 ppm test suspension (asterisk), Septoria nodorum)
1 | Cc1nn(C)c(C(O)C(C)C)c1-c1ccc(F)cc1Cl (stereo not drawn) [Compound 2, 4-(2-chloro-4-fluorophenyl)-1,3-dimethyl-α-(1-methylethyl)-1H-pyrazole-5-methanol] | 0% | 0% |  |  | 
2 | CCCNc1c(-c2ccc(Cl)cc2Cl)c(C)nn1C [Compound 3] | 21% |  | 0% |  | 
3 | Cc1nn(C)c(NCC(C)C)c1-c1ccc(Cl)cc1Cl [Compound 4, 4-(2,4-dichlorophenyl)-1,3-dimethyl-N-(2-methylpropyl)-1H-pyrazol-5-amine] | 94% | 0% |  |  | 
4 | CCCCNc1c(-c2ccc(Cl)cc2Cl)c(C)nn1C [Compound 5, N-butyl-4-(2,4-dichlorophenyl)-1,3-dimethyl-1H-pyrazol-5-amine] | 0% | 0% |  |  | 
5 | Cc1nn(C)c(NC2CCCCC2)c1-c1ccc(F)cc1F [Compound 6, N-cyclohexyl-4-(2,4-difluorophenyl)-1,3-dimethyl-1H-pyrazol-5-amine] | 99% | 0% |  |  | 
6 | CCC(C)C(O)c1c(-c2ccc(F)cc2Cl)c(C)nn1C (stereo not drawn) [Compound 8, 4-(2-chloro-4-fluorophenyl)-1,3-dimethyl-α-(1-methylpropyl)-1H-pyrazole-5-methanol] | 99% | 0% |  |  | 
7 | Cc1nn(C)c(C(O)C(C)(C)CCC#N)c1-c1c(F)cccc1F (centres unmarked) [Compound 9] | 0% |  | 0% |  | 
8 | Cc1nn(C)c(C(O)C2=CCCCC2)c1-c1c(F)cccc1F (centres unmarked) [Compound 10] | 99% |  | 0% |  | 
9 | Cc1nn(C)c(C(O)CC(C)C)c1-c1c(F)cccc1F (centres unmarked) [Compound 11] | 81% |  | 0% |  | 
10 | C=CCC(C)(C)C(O)c1c(-c2c(F)cccc2F)c(C)nn1C (centres unmarked) [Compound 12] | 32% |  | 0% |  | 
11 | CCCCC(CC)C(O)c1c(-c2c(F)cccc2F)c(C)nn1C (centres unmarked) [Compound 13] | 0% |  | 0% |  | 
12 | CCCC(O)c1c(-c2c(F)cccc2F)c(C)nn1C (centres unmarked) [Compound 14] | 0% |  | 0% |  | 
13 | CCC(C)C(O)c1c(-c2c(F)cccc2F)c(C)nn1C (centres unmarked) [Compound 15] | 99% |  | 0% |  | 
14 | CCC(C)C(O)c1c(-c2c(F)cccc2Cl)c(C)nn1C (stereo not drawn) [Compound 19, 4-(2-chloro-6-fluorophenyl)-1,3-dimethyl-α-(1-methylpropyl)-1H-pyrazole-5-methanol] |  |  |  | 0* % | 0%
15 | Cc1nn(C)c(C(O)CC(C)C)c1-c1c(F)cccc1Cl (centres unmarked) [Compound 20] | 93% |  | 0% |  | 
16 | CCCC(O)c1c(-c2c(F)cccc2Cl)c(C)nn1C (centres unmarked) [Compound 21] | 56% |  | 0% |  | 
